Results: US6447748B1, “Benzamide compounds for cancer imaging and therapy” (Research Corporation Technologies, Inc., priority 1993, dated 2002)

Key:
[1] = test system: human A2058 melanoma xenografts; assay: Biodistribution in nude mice xenografted with human melanotic melanoma; assay type: in vivo, Balb/c nu/nu mice; conditions: for RATIO Tumor/Blood / RATIO Tumor/Muscle / Biodistribution Blood / Biodistribution Bone / Biodistribution Brain / Biodistribution Heart / Biodistribution Intestine / Biodistribution Kidney / Biodistribution Liver / Biodistribution Lung / Biodistribution Muscle / Biodistribution Spleen / Biodistribution Stomach / Biodistribution Thyroid / Biodistribution Tumor: nude mice, human melanotic melanoma, mean (std. dev.); for Biodistribution Blood / Biodistribution Bone / Biodistribution Brain / Biodistribution Heart / Biodistribution Intestine / Biodistribution Kidney / Biodistribution Liver / Biodistribution Lung / Biodistribution Muscle / Biodistribution Spleen / Biodistribution Stomach / Biodistribution Thyroid / Biodistribution Tumor: n = 6
Experimental: A2058 tumor cells, derived from a brain metastasis of human malignant melanoma (Todaro et al. 1980 Proc. Natl. Acad. Sci. USA 77:5258) were obtained from the National Institutes of Health. […] Suspension of 5×10^6 cells (viability greater than 95%) in 0.2 mL of medium were inoculated subcutaneously in female Balb/c nu/nu mice. After about two weeks, solid tumors of about 1 cm in diameter appeared in approximately 85% of all inoculated mice. […] Balb/c nu/nu mice (17-22 g) were injected intravenously with 0.2 ml of a saline solution containing [^125I]PAB (5-6 μCi). […] The values obtained were normalized to a mouse weighing 20 g. The differences between [^125I]PAB and [^125I]DAB were examined by Student's unpaired t tests.

[2] = test system: human squamous cell carcinoma xenografts; assay: Biodistribution in nude mice xenografted with human squamous cell carcinoma; assay type: in vivo, Balb/c nu/nu mice; conditions: for Biodistribution Blood / Biodistribution Bone / Biodistribution Brain / Biodistribution Heart / Biodistribution Intestine / Biodistribution Kidney / Biodistribution Liver / Biodistribution Lung / Biodistribution Spleen / Biodistribution Stomach / Biodistribution Thyroid / Biodistribution Tumor: nude mice, human squamous cell carcinoma, mean (std. dev.), n = 6
Experimental: Non-small cell lung carcinoma cell lines NCI-157, NCI-838 and NCI-1299 were obtained from the National Cancer Institute. The NCI-157 cell line is a squamous carcinoma cell line, while NCI-838 is an adenocarcinoma cell line and NCI-1299 is a large cell lung carcinoma cell. […] Suspension of 5×10^6 cells (viability greater than 95%) in 0.2 mL of medium were inoculated subcutaneously in female Balb/c nu/nu mice. After about two weeks, solid tumors of about 1 cm in diameter appeared in approximately 85% of all inoculated mice. […] Balb/c nu/nu mice (17-22 g) were injected intravenously with 0.2 ml of a saline solution containing [^125I]PAB (5-6 μCi). […] The values obtained were normalized to a mouse weighing 20 g.

RATIO Tumor/Blood ([1]; 1 Hour): 4.16 (1.09)
RATIO Tumor/Muscle ([1]; 1 Hour): 7.16 (1.50)
Biodistribution Blood ([1]; 1 Hour): 0.967 (.168) % ID/g
Biodistribution Bone ([1]; 1 Hour): 0.750 (.0663) % ID/g
Biodistribution Brain ([1]; 1 Hour): 0.895 (.0887) % ID/g
Biodistribution Heart ([1]; 1 Hour): 1.14 (.207) % ID/g
Biodistribution Intestine ([1]; 1 Hour): 10.64 (.541) % ID/g
Biodistribution Kidney ([1]; 1 Hour): 3.82 (.561) % ID/g
Biodistribution Liver ([1]; 1 Hour): 6.36 (.770) % ID/g
Biodistribution Lung ([1]; 1 Hour): 2.34 (.277) % ID/g
Biodistribution Muscle ([1]; 1 Hour): 0.552 (.0711) % ID/g
Biodistribution Spleen ([1]; 1 Hour): 3.11 (.789) % ID/g
Biodistribution Stomach ([1]; 1 Hour): 3.23 (.697) % ID/g
Biodistribution Thyroid ([1]; 1 Hour): 4.23 (.594) % ID/g
Biodistribution Tumor ([1]; 1 Hour): 3.87 (.470) % ID/g
RATIO Tumor/Blood ([1]; 6 Hour): 14.9 (5.07)
RATIO Tumor/Muscle ([1]; 6 Hour): 32.5 (12.0)
Biodistribution Blood ([1]; 6 Hour): 0.208 (.0542) % ID/g
Biodistribution Bone ([1]; 6 Hour): 0.115 (.0236) % ID/g
Biodistribution Brain ([1]; 6 Hour): 0.122 (.0331) % ID/g
Biodistribution Heart ([1]; 6 Hour): 0.167 (.0372) % ID/g
Biodistribution Intestine ([1]; 6 Hour): 2.46 (1.18) % ID/g
Biodistribution Kidney ([1]; 6 Hour): 0.483 (.131) % ID/g
Biodistribution Liver ([1]; 6 Hour): 1.16 (.212) % ID/g
Biodistribution Lung ([1]; 6 Hour): 0.387 (.0568) % ID/g
Biodistribution Muscle ([1]; 6 Hour): 0.0983 (.0306) % ID/g
Biodistribution Spleen ([1]; 6 Hour): 0.330 (.105) % ID/g
Biodistribution Stomach ([1]; 6 Hour): 0.757 (.298) % ID/g
Biodistribution Thyroid ([1]; 6 Hour): 0.583 (.203) % ID/g
Biodistribution Tumor ([1]; 6 Hour): 2.91 (.463) % ID/g
RATIO Tumor/Blood ([1]; 24 Hour): 17.8 (6.10)
RATIO Tumor/Muscle ([1]; 24 Hour): 94.5 (32.5)
Biodistribution Blood ([1]; 24 Hour): 0.0617 (.018) % ID/g
Biodistribution Bone ([1]; 24 Hour): 0.0133 (.0052) % ID/g
Biodistribution Brain ([1]; 24 Hour): 0.0067 (.0052) % ID/g
Biodistribution Heart ([1]; 24 Hour): 0.0283 (.0075) % ID/g
Biodistribution Intestine ([1]; 24 Hour): 0.132 (.0852) % ID/g
Biodistribution Kidney ([1]; 24 Hour): 0.0850 (.016) % ID/g
Biodistribution Liver ([1]; 24 Hour): 0.263 (.0216) % ID/g
Biodistribution Lung ([1]; 24 Hour): 0.0717 (.0075) % ID/g
Biodistribution Muscle ([1]; 24 Hour): 0.0117 (.0041) % ID/g
Biodistribution Spleen ([1]; 24 Hour): 0.0383 (.015) % ID/g
Biodistribution Stomach ([1]; 24 Hour): 0.130 (0.881) % ID/g
Biodistribution Thyroid ([1]; 24 Hour): 0.100 (.143) % ID/g
Biodistribution Tumor ([1]; 24 Hour): 1.028 (.239) % ID/g
amount in tumors relative to livers ([1]; 24 hrs., melanoma xenograft): about four-fold
tumor concentration relative to that of [125I]DAB ([1]; 24 hrs., melanoma xenograft): twice
Biodistribution Blood ([2]; 1 hr.): 1.99 (0.35) % ID/g
Biodistribution Bone ([2]; 1 hr.): 2.03 (0.28) % ID/g
Biodistribution Brain ([2]; 1 hr.): 1.80 (0.17) % ID/g
Biodistribution Heart ([2]; 1 hr.): 2.25 (0.07) % ID/g
Biodistribution Intestine ([2]; 1 hr.): 12.63 (0.43) % ID/g
Biodistribution Kidney ([2]; 1 hr.): 6.56 (0.04) % ID/g
Biodistribution Liver ([2]; 1 hr.): 10.48 (1.26) % ID/g
Biodistribution Lung ([2]; 1 hr.): 4.91 (0.25) % ID/g
Biodistribution Spleen ([2]; 1 hr.): 3.97 (0.18) % ID/g
Biodistribution Stomach ([2]; 1 hr.): 5.57 (1.31) % ID/g
Biodistribution Thyroid ([2]; 1 hr.): 7.84 (0.91) % ID/g
Biodistribution Tumor ([2]; 1 hr.): 4.27 (0.40) % ID/g
Biodistribution Blood ([2]; 6 hr.): 0.51 (0.03) % ID/g
Biodistribution Bone ([2]; 6 hr.): 0.56 (0.18) % ID/g
Biodistribution Brain ([2]; 6 hr.): 0.29 (0.01) % ID/g
Biodistribution Heart ([2]; 6 hr.): 0.49 (0.03) % ID/g
Biodistribution Intestine ([2]; 6 hr.): 11.41 (0.52) % ID/g
Biodistribution Kidney ([2]; 6 hr.): 1.61 (0.28) % ID/g
Biodistribution Liver ([2]; 6 hr.): 3.47 (0.23) % ID/g
Biodistribution Lung ([2]; 6 hr.): 1.10 (0.03) % ID/g
Biodistribution Spleen ([2]; 6 hr.): 0.86 (0.20) % ID/g
Biodistribution Stomach ([2]; 6 hr.): 3.46 (0.18) % ID/g
Biodistribution Thyroid ([2]; 6 hr.): 2.80 (0.49) % ID/g
Biodistribution Tumor ([2]; 6 hr.): 3.27 (0.33) % ID/g
Biodistribution Blood ([2]; 24 hr.): 0.15 (0.07) % ID/g
Biodistribution Bone ([2]; 24 hr.): 0.02 (0.00) % ID/g
Biodistribution Brain ([2]; 24 hr.): 0.01 (0.00) % ID/g
Biodistribution Heart ([2]; 24 hr.): 0.03 (0.00) % ID/g
Biodistribution Intestine ([2]; 24 hr.): 0.38 (0.09) % ID/g
Biodistribution Kidney ([2]; 24 hr.): 0.13 (0.00) % ID/g
Biodistribution Liver ([2]; 24 hr.): 0.39 (0.02) % ID/g
Biodistribution Lung ([2]; 24 hr.): 0.08 (0.00) % ID/g
Biodistribution Spleen ([2]; 24 hr.): 0.05 (0.00) % ID/g
Biodistribution Stomach ([2]; 24 hr.): 0.20 (0.03) % ID/g
Biodistribution Thyroid ([2]; 24 hr.): 0.09 (0.01) % ID/g
Biodistribution Tumor ([2]; 24 hr.): 0.66 (0.12) % ID/g
tumor concentration relative to that of [125I]DAB ([2]; 24 hrs. post-injection, squamous cell carcinoma xenograft): more than three-fold
SMILES: O=C(NCCN1CCCCC1)c1ccc([125I])cc1 [[^125I]PAB, ^125I(2-piperidinylaminoethyl)4-iodobenzamide]
